Measurements taken from PubChem BioAssay AID1506 (NMMLSC, 2009).
Calls of active or inactive are those of the source. No rule for the calls is given here.

Test system: S. aureus strains, lipase production inhibition
Assay: quorum-sensing-driven lipase output in S. aureus strains – NM300, NM400, MRSA3757, S. aureus quorum sensing inhibitors (AID 1506)
Settings: for inhibition: stronger effect = higher value
[1] = lipase inhibition, MRSA3757, at 12 µM
[2] = lipase inhibition, strain NM400, at 12 µM

Row | SMILES | inhibition (at 30 µM) | inhibition (lipase inhibition, strain NM300, at 30 µM) | outcome (at 12 µM) | inhibition [1] | inhibition [2] | inhibition (at 6 µM) | inhibition (lipase inhibition, strain NM300, at 6 µM)
1 | Cc1c(Cl)cccc1Nc1ccccc1C(=O)O | 80% | 90% | – | – | – | – | –
2 | CC1CCCN(C(C(=O)Nc2ccc3c(c2)OCCO3)c2ccccc2)C1 (stereo not given) | – | – | inactive; agr3 active | 0% | 68% | – | –
3 | CC1CCCN(C(C(=O)Nc2ccc3c(c2)OCO3)c2ccccc2)C1 (stereo not given) | – | – | inactive; agr3 active | 0% | 84% | – | –
4 | CCc1oc2ccccc2c1C(=O)c1cc(Br)c(O)c(Br)c1 | – | – | – | – | – | 80% | 95%
